# From patent US10442807B2, “Aryl substituted bicyclic compounds as herbicides” (FMC Corporation, priority 2015, dated 2019)
# Experiments:
# Type in all cases: in vivo
# [1] = tested on: foxtail, giant (giant foxtail, Setaria faberii); assay: Test A preemergence, directed soil spray, visual injury rating; conditions: approx. 10 d, 0 = no effect, 100 = complete control
# Summary of the method: (§1)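 In a loam soil and sand blend, either planted seeds got a preemergence directed soil spray or plants at the one- to two-leaf stage (2 to 10 cm tall) were sprayed, using test chemicals in a non-phytotoxic solvent mixture with surfactant. After about 10 d in a greenhouse, injury was visually rated against untreated controls on a 0-100 scale.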
# [2] = tested on: barnyardgrass (Echinochloa crus-galli); assay: as above; conditions: approx. 10 d, 0 = no effect, 100 = complete control
# Summary of the method: as §1
# [3] = tested on: pigweed (Amaranthus retroflexus); assay: as above; conditions: approx. 10 d, 0 = no effect, 100 = complete control
# Summary of the method: as §1
# [4] = tested on: ragweed (common ragweed, Ambrosia elation); assay: as above; conditions: approx. 10 d, 0 = no effect, 100 = complete control
# Summary of the method: as §1
# [5] = tested on: ryegrass, Italian (Italian ryegrass, Lolium multiflorum); assay: as above; conditions: approx. 10 d, 0 = no effect, 100 = complete control
# Summary of the method: as §1
# kochia (Kochia scoparia) [6] = assay: as above; conditions: approx. 10 d, 0 = no effect, 100 = complete control
# Summary of the method: as §1
# [7] = tested on: sedge, umbrella (small-flower umbrella sedge, Cyperus difformis); assay: Test B flooded paddy test, visual plant response rating; conditions: 250 g ai/ha; applied to paddy water at 2-leaf stage; rated after 13 to 15 days; scale 0 to 100, 0 is no effect, 100 is complete control
# Summary of the method: (§2)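 Visual injury score 0 to 100 against controls (0 = no effect, 100 = complete control), taken 13–15 days after treatment. Test compound went into the paddy water of pots flooded 3 cm over the soil surface, water kept at that depth in greenhouse.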
# [8] = tested on: barnyardgrass (Echinochloa crus-galli); assay: as above; conditions: 250 g ai/ha; applied to paddy water at 2-leaf stage; rated after 13 to 15 days; scale 0 to 100, 0 is no effect, 100 is complete control
# Summary of the method: as §2
# rice (Oryza sativa) = assay: as above; conditions: 250 g ai/ha; applied to paddy water at 2-leaf stage; rated after 13 to 15 days; scale 0 to 100, 0 is no effect, 100 is complete control
# Summary of the method: as §2
# [9] = tested on: ducksalad (Heteranthera limosa); assay: as above; conditions: 250 g ai/ha; applied to paddy water at 2-leaf stage; rated after 13 to 15 days; scale 0 to 100, 0 is no effect, 100 is complete control
# Summary of the method: as §2
# [10] = tested on: galium (catchweed bedstraw, Galium aparine); assay: Test A postemergence application, visual injury rating; conditions: approx. 10 d, 0 = no effect, 100 = complete control
# Summary of the method: as §1
# corn (Zea mays) = assay: as above; conditions: approx. 10 d, 0 = no effect, 100 = complete control
# Summary of the method: as §1
# [11] = tested on: foxtail, giant (giant foxtail, Setaria faberii); assay: as above; conditions: approx. 10 d, 0 = no effect, 100 = complete control
# Summary of the method: as §1
# [12] = tested on: barnyardgrass (Echinochloa crus-galli); assay: as above; conditions: approx. 10 d, 0 = no effect, 100 = complete control
# Summary of the method: as §1
# [13] = tested on: pigweed (Amaranthus retroflexus); assay: as above; conditions: approx. 10 d, 0 = no effect, 100 = complete control
# Summary of the method: as §1
# [14] = tested on: ragweed (common ragweed, Ambrosia elation); assay: as above; conditions: approx. 10 d, 0 = no effect, 100 = complete control
# Summary of the method: as §1
# [15] = tested on: blackgrass (Alopecurus myosuroides); assay: as above; conditions: approx. 10 d, 0 = no effect, 100 = complete control
# Summary of the method: as §1
# [16] = tested on: ryegrass, Italian (Italian ryegrass, Lolium multiflorum); assay: as above; conditions: approx. 10 d, 0 = no effect, 100 = complete control
# Summary of the method: as §1
# kochia (Kochia scoparia) [17] = assay: as above; conditions: approx. 10 d, 0 = no effect, 100 = complete control
# Summary of the method: as §1
# [18] = tested on: wheat (Triticum aestivum); assay: as above; conditions: approx. 10 d, 0 = no effect, 100 = complete control
# Summary of the method: as §1
Structure (SMILES),"Foxtail, Giant plant response rating (0 to 100 scale) ([1]; 125 g ai/ha)","Foxtail, Giant plant response rating (0 to 100 scale) ([1]; 500 g ai/ha)",Barnyardgrass plant response rating (0 to 100 scale) ([2]; 125 g ai/ha),Barnyardgrass plant response rating (0 to 100 scale) ([2]; 500 g ai/ha),Pigweed plant response rating (0 to 100 scale) ([3]; 125 g ai/ha),Pigweed plant response rating (0 to 100 scale) ([3]; 500 g ai/ha),Ragweed plant response rating (0 to 100 scale) ([4]; 125 g ai/ha),Ragweed plant response rating (0 to 100 scale) ([4]; 500 g ai/ha),"Ryegrass, Italian plant response rating (0 to 100 scale) ([5]; 125 g ai/ha)","Ryegrass, Italian plant response rating (0 to 100 scale) ([5]; 500 g ai/ha)",Kochia plant response rating (0 to 100 scale) (kochia (Kochia scoparia) [6]; 125 g ai/ha),Kochia plant response rating (0 to 100 scale) (kochia (Kochia scoparia) [6]; 500 g ai/ha),"Plant response rating, Flood, Sedge, Umbrella [7]","Plant response rating, Flood, Barnyardgrass [8]","Plant response rating, Flood, Rice (rice (Oryza sativa))","Plant response rating, Flood, Ducksalad [9]",Galium plant response rating (0 to 100 scale) ([10]; 125 g ai/ha),Galium plant response rating (0 to 100 scale) ([10]; 500 g ai/ha),Corn plant response rating (0 to 100 scale) (corn (Zea mays); 125 g ai/ha),Corn plant response rating (0 to 100 scale) (corn (Zea mays); 500 g ai/ha),also measured
CCc1ccc(C2Cn3c(C)nnc3C2C(=O)Nc2ccccc2SC)cc1 (stereo not drawn) [Compound 15],0,0,0,0,0,0,0,0,0,0,0,0,0,0,20,50,0,0,0,0,"Foxtail, Giant plant response rating (0 to 100 scale) ([11]; 125 g ai/ha): 0; Foxtail, Giant plant response rating (0 to 100 scale) ([11]; 500 g ai/ha): 0; Barnyardgrass plant response rating (0 to 100 scale) ([12]; 125 g ai/ha): 0; Barnyardgrass plant response rating (0 to 100 scale) ([12]; 500 g ai/ha): 0; Pigweed plant response rating (0 to 100 scale) ([13]; 125 g ai/ha): 0; Pigweed plant response rating (0 to 100 scale) ([13]; 500 g ai/ha): 0; Ragweed plant response rating (0 to 100 scale) ([14]; 125 g ai/ha): 0; Ragweed plant response rating (0 to 100 scale) ([14]; 500 g ai/ha): 0; Blackgrass plant response rating (0 to 100 scale) ([15]; 125 g ai/ha): 0; Blackgrass plant response rating (0 to 100 scale) ([15]; 500 g ai/ha): 0; Ryegrass, Italian plant response rating (0 to 100 scale) ([16]; 125 g ai/ha): 0; Ryegrass, Italian plant response rating (0 to 100 scale) ([16]; 500 g ai/ha): 0; Kochia plant response rating (0 to 100 scale) (kochia (Kochia scoparia) [17]; 125 g ai/ha): 0; Kochia plant response rating (0 to 100 scale) (kochia (Kochia scoparia) [17]; 500 g ai/ha): 0; Wheat plant response rating (0 to 100 scale) ([18]; 125 g ai/ha): 0; Wheat plant response rating (0 to 100 scale) ([18]; 500 g ai/ha): 0"
Cc1ccc(C2Cn3cnnc3C2C(=O)Nc2cccc(F)c2F)cc1C (stereo not drawn) [Compound 16],90,90,70,90,0,0,0,50,0,60,70,80,0,50,15,75,40,50,0,70,"Foxtail, Giant plant response rating (0 to 100 scale) ([11]; 125 g ai/ha): 60; Foxtail, Giant plant response rating (0 to 100 scale) ([11]; 500 g ai/ha): 80; Barnyardgrass plant response rating (0 to 100 scale) ([12]; 125 g ai/ha): 60; Barnyardgrass plant response rating (0 to 100 scale) ([12]; 500 g ai/ha): 80; Pigweed plant response rating (0 to 100 scale) ([13]; 125 g ai/ha): 0; Pigweed plant response rating (0 to 100 scale) ([13]; 500 g ai/ha): 0; Ragweed plant response rating (0 to 100 scale) ([14]; 125 g ai/ha): 0; Ragweed plant response rating (0 to 100 scale) ([14]; 500 g ai/ha): 50; Blackgrass plant response rating (0 to 100 scale) ([15]; 125 g ai/ha): 0; Blackgrass plant response rating (0 to 100 scale) ([15]; 500 g ai/ha): 60; Ryegrass, Italian plant response rating (0 to 100 scale) ([16]; 125 g ai/ha): 0; Ryegrass, Italian plant response rating (0 to 100 scale) ([16]; 500 g ai/ha): 50; Kochia plant response rating (0 to 100 scale) (kochia (Kochia scoparia) [17]; 125 g ai/ha): 30; Kochia plant response rating (0 to 100 scale) (kochia (Kochia scoparia) [17]; 500 g ai/ha): 30; Wheat plant response rating (0 to 100 scale) ([18]; 125 g ai/ha): 0; Wheat plant response rating (0 to 100 scale) ([18]; 500 g ai/ha): 50"
